Tests used:
[1] = tested on: L1210; assay: Antitumor activity against mouse L1210 cells […] in ip dosed C3H X DBA2 F1 hybrid mouse on day 0 and dosed at LD10 level once daily on days 1 to 5 assessed as increase in life span relative to control; format: functional
[2] = organism: Bos taurus; assay: Displacement of ethidium from calf thymus DNA by fluorimetric method
[3] = tested on: Mus musculus; assay: Toxicity in ip dosed C3H X DBA2 F1 hybrid mouse […] with mouse L1210 cells on day 0 and dosed once daily on days 1 to 5 measured after 50 days; format: organism-based; settings: in vivo, 1200 h
[4] = tested on: L1210; assay: Antitumor activity against mouse L1210 cells […] in ip dosed C3H X DBA2 F1 hybrid mouse on day 0 and dosed once daily on days 1 to 5 assessed as increase in life span relative to control; format: functional
[5] = Lipophilic-hydrophilic balance, Rm of the compound by partition chromatography; format: physicochemical
[6] = Displacement of ethidium from poly[d(A-T)]-poly[d(A-T)] DNA by fluorimetric method
[7] = Displacement of ethidium from poly[d(G-C)]-poly[d(G-C)] DNA (unknown origin) by fluorimetric method

C[n+]1ccc(Nc2ccc(NC(=O)c3ccc(-c4ccc(Nc5cc[n+](C)cc5)cc4)cc3)cc2)cc1.[I-].[I-]
log(ILSmax) [1]: 2.28
C50 [2]: 2.04 µM
LD10 [3]: 2.6 mg/kg
D40 [4]: 0.6 mg/kg
Rm [5]: 0.06
C50 [6]: 0.37 µM
C50 [7]: 3.01 µM

C/C(=N\NC(=N)N)c1ccc(NC(=O)Nc2ccc(Nc3c4ccccc4[n+](C)c4cc(N)ccc34)cc2)cc1.Cl.[Cl-]
log(ILSmax) [1]: 2.55
C50 [2]: 0.13 µM
LD10 [3]: 22 mg/kg
D40 [4]: 0.3 mg/kg
Rm [5]: 0.69
C50 [6]: 0.09 µM
C50 [7]: 0.2 µM

COc1cc(C(=O)Nc2ccc(C(=O)Nc3ccc[n+](C)c3)cc2)ccc1C(=O)Nc1ccc(C(=O)Nc2ccc[n+](C)c2)cc1.Cc1ccc(S(=O)(=O)[O-])cc1.Cc1ccc(S(=O)(=O)[O-])cc1
log(ILSmax) [1]: 1.72
C50 [2]: 0.64 µM
LD10 [3]: 18 mg/kg
D40 [4]: 10.3 mg/kg
Rm [5]: 0.23
C50 [6]: 0.64 µM
C50 [7]: 1.51 µM

C[n+]1ccc(Nc2ccc(C(=O)Nc3ccc(Nc4cc[n+](C)c5ccc(N)cc45)c(N)c3)cc2)cc1.Cc1ccc(S(=O)(=O)[O-])cc1.Cc1ccc(S(=O)(=O)[O-])cc1
log(ILSmax) [1]: 2.03
C50 [2]: 1.58 µM
LD10 [3]: 9 mg/kg
D40 [4]: 1.1 mg/kg
Rm [5]: -0.15
C50 [6]: 0.25 µM
C50 [7]: 2.68 µM

C[n+]1ccc(Nc2ccc(NC(=O)/C=C/c3ccc(C(=O)Nc4ccc(Nc5cc[n+](C)cc5)cc4)cc3)cc2)cc1.Cc1ccc(S(=O)(=O)[O-])cc1.Cc1ccc(S(=O)(=O)[O-])cc1
log(ILSmax) [1]: 2.28
C50 [2]: 0.43 µM
LD10 [3]: 11 mg/kg
D40 [4]: 4.2 mg/kg
Rm [5]: -0.34
C50 [6]: 0.14 µM
C50 [7]: 0.51 µM

CC[n+]1cc(-c2ccc(NC(=O)c3ccc(C(=O)Nc4ccc(-c5c[n+](CC)c(N)nc5N)cc4)cc3)cc2)c(N)nc1N.Cc1ccc(S(=O)(=O)[O-])cc1.Cc1ccc(S(=O)(=O)[O-])cc1
log(ILSmax) [1]: 2.17
C50 [2]: 0.84 µM
LD10 [3]: 15 mg/kg
D40 [4]: 3.5 mg/kg
Rm [5]: -0.19
C50 [6]: 0.45 µM
C50 [7]: 2.1 µM

C[n+]1ccc(Nc2ccc(NC(=O)c3ccc(Nc4cc[n+](C)c5cc(Cl)ccc45)cc3)cc2)cc1.[Br-].[Br-]
log(ILSmax) [1]: 1.97
C50 [2]: 1 µM
LD10 [3]: 39 mg/kg
D40 [4]: 12 mg/kg
Rm [5]: 0.31
C50 [6]: 0.21 µM
C50 [7]: 2.27 µM

C[n+]1ccc(Nc2ccc(NC(=O)c3ccc(C(=O)Nc4ccc(Nc5cc[n+](C)c(N)n5)cc4)cc3)cc2)nc1N.Cc1ccc(S(=O)(=O)[O-])cc1.Cc1ccc(S(=O)(=O)[O-])cc1
log(ILSmax) [1]: 2.2
C50 [2]: 0.45 µM
LD10 [3]: 75 mg/kg
D40 [4]: 8.6 mg/kg
Rm [5]: -0.64
C50 [6]: 0.29 µM
C50 [7]: 0.64 µM

CCC[n+]1ccc(Nc2ccc(NC(=O)c3ccc(Nc4cc[n+](CCC)c5ccc(N)cc45)cc3)cc2)cc1.[Br-].[Br-]
log(ILSmax) [1]: 2.07
C50 [2]: 0.68 µM
LD10 [3]: 10 mg/kg
D40 [4]: 1.8 mg/kg
Rm [5]: 0.46
C50 [6]: 0.1 µM
C50 [7]: 1.1 µM

C[n+]1ccc(-c2ccc(-c3ccc(-c4ccc(/N=N/Nc5ccc(C(=O)Nc6ccc(-c7ccc(-c8ccc(-c9cc[n+](C)cc9)cc8)cc7)cc6)cc5)cc4)cc3)cc2)cc1.Cc1ccc(S(=O)(=O)[O-])cc1.Cc1ccc(S(=O)(=O)[O-])cc1
log(ILSmax) [1]: 2.34
C50 [2]: 0.83 µM
LD10 [3]: 6 mg/kg
D40 [4]: 1.4 mg/kg
Rm [5]: -0.22
C50 [6]: 0.1 µM
C50 [7]: 0.38 µM

C/C(=N\NC(=N)N)c1ccc(NC(=O)c2ccc(Nc3cc[n+](C)c4cc(N)ccc34)cc2)cc1.Cc1ccc(S(=O)(=O)O)cc1.Cc1ccc(S(=O)(=O)[O-])cc1
log(ILSmax) [1]: 2.2
C50 [2]: 0.53 µM
LD10 [3]: 31 mg/kg
D40 [4]: 4 mg/kg
Rm [5]: -0.36
C50 [6]: 0.19 µM
C50 [7]: 1 µM

Reference: ChEMBL document CHEMBL3228010, “Potential antitumor agents. 29. Quantitative structure-activity relationships for the antileukemic bisquaternary ammonium heterocycles” (J Med Chem, 1979)
